Key:
Leishmania mexicana = assay: Antileishmanial activity against renilla luciferase-expressing Leishmania mexicana promastigotes infected in mouse J774.A1 cells assessed as inhibition of intracellular amastigotes growth incubated for 96 hrs by Renilla luciferase assay; assay type: functional, organism-based; conditions: J774.A1, 96 h
BJ = assay: Cytotoxicity against human BJ cells assessed as reduction in cell viability incubated for 72 hrs by Cell TiterGlo assay; assay type: functional, cell-based

Cc1cc(Cl)c(Cl)cc1NC(=O)c1ccc(F)c([N+](=O)[O-])c1
EC50 (Leishmania mexicana): 2.4 µM

N#Cc1ccc(NC(=O)c2ccc(N3CCNCC3)c([N+](=O)[O-])c2)cc1
EC50 (Leishmania mexicana): 5.4 µM

O=C(Nc1cccc(-c2ncco2)c1)c1cc([N+](=O)[O-])c(F)cc1Cl
EC50 (Leishmania mexicana): 0.9 µM

Cc1ccc(-c2nc3ccccc3s2)cc1NC(=O)c1cc([N+](=O)[O-])c(N2CCNCC2)cc1Cl
EC50 (Leishmania mexicana): 0.7 µM | EC50 (BJ): > 14.5 µM

Cc1ccc(-c2nc3ccccc3s2)cc1NC(=O)c1cc([N+](=O)[O-])c(F)cc1Cl
EC50 (Leishmania mexicana): 1.2 µM

Cc1ccc(-c2nc3ccccc3s2)cc1NC(=O)c1ccc(Br)cc1F
EC50 (Leishmania mexicana): 45 µM

O=C(Nc1ccc(Cl)c(Cl)c1)c1cc([N+](=O)[O-])c(F)cc1F
EC50 (Leishmania mexicana): 0.2 µM | EC50 (BJ): 2.4 µM

Cc1ccc(-c2nc3ccccc3s2)cc1NC(=O)c1ccc(N2CCNCC2)c([N+](=O)[O-])c1
EC50 (Leishmania mexicana): 0.3 µM | EC50 (BJ): 8.6 µM

O=C(Nc1ccc(-c2ccccc2)cc1)c1cc([N+](=O)[O-])c(F)cc1Cl
EC50 (Leishmania mexicana): 1.3 µM

Cc1ccc(-c2nc3ccccc3s2)cc1NC(=O)c1ccc(Cl)nc1
EC50 (Leishmania mexicana): 8.2 µM

O=C(Nc1cnc(Cl)c(Cl)c1)c1ccc(N2CCNCC2)c([N+](=O)[O-])c1
EC50 (Leishmania mexicana): 1.2 µM

O=C(Nc1cccc(-c2nccs2)c1)c1cc([N+](=O)[O-])c(F)cc1Cl
EC50 (Leishmania mexicana): 1.3 µM

O=C(Nc1ccc(Cl)cc1)c1cc([N+](=O)[O-])c(F)cc1Cl
EC50 (Leishmania mexicana): 1.1 µM

Cc1ccc(-c2nc3ccccc3s2)cc1NC(=O)c1cnccc1Cl
EC50 (Leishmania mexicana): 8.8 µM

O=C(Nc1cccc(-c2nc3ccccc3o2)c1)c1cc([N+](=O)[O-])c(F)cc1Cl
EC50 (Leishmania mexicana): 0.9 µM | EC50 (BJ): > 30 µM

O=C(Nc1cncc(-c2nc3ccccc3o2)c1)c1cc([N+](=O)[O-])c(F)cc1F
EC50 (Leishmania mexicana): 0.5 µM | EC50 (BJ): > 30 µM

COc1ccncc1C(=O)Nc1cc(-c2nc3ccccc3s2)ccc1C
EC50 (Leishmania mexicana): 31 µM

Cc1ccc(C(F)(F)F)cc1NC(=O)c1cc([N+](=O)[O-])c(F)cc1Cl
EC50 (Leishmania mexicana): 1.7 µM

CC(=O)Nc1cccc(NC(=O)c2cc([N+](=O)[O-])c(F)cc2Cl)c1
EC50 (Leishmania mexicana): 2.9 µM

CN1CCN(c2cc(Cl)c(C(=O)Nc3cncc(-c4nc5ccccc5s4)c3)cc2[N+](=O)[O-])CC1
EC50 (Leishmania mexicana): 0.9 µM | EC50 (BJ): > 30 µM

O=C(Nc1cnc(Cl)c(Cl)c1)c1cc([N+](=O)[O-])c(F)cc1F
EC50 (Leishmania mexicana): 0.2 µM | EC50 (BJ): 1.6 µM

O=C(Nc1cncc(-c2nc3ccccc3s2)c1)c1cc([N+](=O)[O-])c(F)cc1Cl
EC50 (Leishmania mexicana): 0.9 µM | EC50 (BJ): 4.9 µM

Cc1ccc(-c2nc3ccccc3s2)cc1NC(=O)c1cnccc1C#N
EC50 (Leishmania mexicana): 51 µM

O=C(Nc1cccc(-c2nccs2)c1)c1cc([N+](=O)[O-])c(F)cc1F
EC50 (Leishmania mexicana): 0.4 µM | EC50 (BJ): 1.5 µM

O=C(Nc1cccc(Cl)c1)c1cc([N+](=O)[O-])c(F)cc1F
EC50 (Leishmania mexicana): 0.6 µM | EC50 (BJ): 1.8 µM

Cc1ccc(-c2nc3ccccc3s2)cc1NC(=O)c1ccc(F)c([N+](=O)[O-])c1
EC50 (Leishmania mexicana): 1.2 µM

Cc1ccc(NC(=O)c2cc([N+](=O)[O-])c(F)cc2Cl)cc1
EC50 (Leishmania mexicana): 1.2 µM

COc1cc(Cl)ncc1C(=O)Nc1cc(-c2nc3ccccc3s2)ccc1C
EC50 (Leishmania mexicana): 42 µM

Cc1ccc(-c2nc3ccccc3s2)cc1NC(=O)c1cc([N+](=O)[O-])c(N2CC3(COC3)C2)cc1Cl
EC50 (Leishmania mexicana): 29 µM

Cc1ccc(-c2nc3ccccc3s2)cc1NC(=O)c1cc([N+](=O)[O-])c(NCCN(C)C)cc1Cl
EC50 (Leishmania mexicana): 0.8 µM | EC50 (BJ): 17.2 µM

O=C(Nc1ccc(F)cc1)c1cc([N+](=O)[O-])c(F)cc1Cl
EC50 (Leishmania mexicana): 1.2 µM

Cc1ccc(-c2nc3ccccc3s2)cc1NC(=O)c1cc([N+](=O)[O-])ccc1F
EC50 (Leishmania mexicana): 64 µM

Cc1ccc(-c2nc3ccccc3o2)cc1NC(=O)c1cc([N+](=O)[O-])c(N2CCN(C)CC2)cc1Cl
EC50 (Leishmania mexicana): 0.8 µM | EC50 (BJ): 4.6 µM

O=C(Nc1cccnc1)c1cc([N+](=O)[O-])c(F)cc1Cl
EC50 (Leishmania mexicana): 4.6 µM

O=C(Nc1ccc(Cl)c(Cl)c1)c1ccc(N2CCNCC2)nc1
EC50 (Leishmania mexicana): 1.4 µM

O=C(Nc1cccc(-c2nccs2)c1)c1cc([N+](=O)[O-])c(N2CCNCC2)cc1Cl
EC50 (Leishmania mexicana): 1.5 µM

Cc1ccc(-c2nc3ccccc3s2)cc1NC(=O)c1ccc(F)c(C(F)(F)F)c1
EC50 (Leishmania mexicana): 21 µM

Cc1cc(Cl)c(Cl)cc1NC(=O)c1cc([N+](=O)[O-])c(F)cc1F
EC50 (Leishmania mexicana): 0.3 µM | EC50 (BJ): 1.3 µM

Cc1ccc(-c2nc3ccccc3s2)cc1NC(=O)c1cnccc1F
EC50 (Leishmania mexicana): 27 µM

O=C(Nc1cccc(-c2ccccn2)c1)c1cc([N+](=O)[O-])c(F)cc1Cl
EC50 (Leishmania mexicana): 1.1 µM

Cc1ccc(-c2nc3ccccc3s2)cc1NC(=O)c1ccc(Cl)c([N+](=O)[O-])c1
EC50 (Leishmania mexicana): 20 µM

O=C(Nc1cccc(-c2cccnc2)c1)c1cc([N+](=O)[O-])c(F)cc1Cl
EC50 (Leishmania mexicana): 2 µM

O=C(Nc1cccc(-c2ncco2)c1)c1ccc(N2CCNCC2)c([N+](=O)[O-])c1
EC50 (Leishmania mexicana): 3.1 µM

Cc1ccc(-c2nc3ccccc3s2)cc1NC(=O)c1cc([N+](=O)[O-])c(Cl)cc1F
EC50 (Leishmania mexicana): 2 µM

O=C(Nc1cccc(-c2nccs2)c1)c1ccc(N2CCNCC2)c([N+](=O)[O-])c1
EC50 (Leishmania mexicana): 1.4 µM

O=C(Nc1ccc(F)c(Cl)c1)c1cc([N+](=O)[O-])c(F)cc1Cl
EC50 (Leishmania mexicana): 1 µM

Cc1ccc(-c2nc3ccccc3s2)cc1NC(=O)c1cc([N+](=O)[O-])c(N(C)CCN(C)C)cc1Cl
EC50 (Leishmania mexicana): 0.4 µM | EC50 (BJ): 6.1 µM

Cc1ccc(-c2nc3ccccc3s2)cc1NC(=O)c1cc([N+](=O)[O-])c(NCCNC(=O)OC(C)(C)C)cc1Cl
EC50 (Leishmania mexicana): 0.7 µM | EC50 (BJ): > 25 µM

Cc1ccc(-c2nc3ccccc3o2)cc1NC(=O)c1cc([N+](=O)[O-])c(F)cc1Cl
EC50 (Leishmania mexicana): 0.4 µM | EC50 (BJ): 16 µM

O=C(Nc1cccc(Cl)c1)c1ccc(N2CCNCC2)c([N+](=O)[O-])c1
EC50 (Leishmania mexicana): 1.4 µM

Cc1ccc(-c2nc3ccccc3s2)cc1NC(=O)c1cc([N+](=O)[O-])c(NC2CCN(C)CC2)cc1Cl
EC50 (Leishmania mexicana): 0.8 µM | EC50 (BJ): 9.2 µM

Cc1ccc(-c2nc3ccccc3s2)cc1NC(=O)c1cnc(Cl)cc1Cl
EC50 (Leishmania mexicana): 9.8 µM

O=C(Nc1cncc(-c2nc3ccccc3o2)c1)c1cc([N+](=O)[O-])c(F)cc1Cl
EC50 (Leishmania mexicana): 1 µM | EC50 (BJ): 2.9 µM

Cc1ccc(Br)cc1NC(=O)c1cc([N+](=O)[O-])c(F)cc1Cl
EC50 (Leishmania mexicana): 1.4 µM

Cc1ccc(-c2nc3ccccc3s2)cc1NC(=O)c1ccc(F)nc1
EC50 (Leishmania mexicana): 6.4 µM

Cc1ccc(-c2nc3ccccc3s2)cc1NC(=O)c1ccc(Br)cc1Cl
EC50 (Leishmania mexicana): 57 µM

Cc1ccc(-c2nc3ccccc3s2)cc1NC(=O)c1cc([N+](=O)[O-])ccc1C(F)(F)F
EC50 (Leishmania mexicana): 56 µM

N#Cc1ccc(NC(=O)c2cc([N+](=O)[O-])c(F)cc2Cl)cc1
EC50 (Leishmania mexicana): 1 µM

O=C(Nc1ccc(Cl)c(Cl)c1)c1ccc(F)c([N+](=O)[O-])c1
EC50 (Leishmania mexicana): 1.1 µM

O=C(Nc1ccc(F)c(F)c1)c1cc([N+](=O)[O-])c(F)cc1Cl
EC50 (Leishmania mexicana): 1.3 µM

Cc1ccc(-c2nc3ccccc3s2)cc1NC(=O)c1cc([N+](=O)[O-])c(Cl)cc1Cl
EC50 (Leishmania mexicana): 4.3 µM

O=C(Nc1cnc(Cl)c(Cl)c1)c1cc([N+](=O)[O-])c(F)cc1Cl
EC50 (Leishmania mexicana): 0.5 µM

CN1CCN(c2cc(Cl)c(C(=O)Nc3cccc(-c4nccs4)c3)cc2[N+](=O)[O-])CC1
EC50 (Leishmania mexicana): 2.1 µM

Cc1ccc(-c2nc3ccccc3s2)cc1NC(=O)c1cc([N+](=O)[O-])c(N2CC3(CN(C(=O)OC(C)(C)C)C3)C2)cc1Cl
EC50 (Leishmania mexicana): 63 µM

Cc1ccc(C)c(NC(=O)c2cc([N+](=O)[O-])c(F)cc2Cl)c1
EC50 (Leishmania mexicana): 2.4 µM

Cc1ccc(-c2nc3ccccc3s2)cc1NC(=O)c1cnccc1O
EC50 (Leishmania mexicana): 53 µM

O=C(Nc1cccc(Cl)c1)c1ccc(F)c([N+](=O)[O-])c1
EC50 (Leishmania mexicana): 4 µM
